The test system of one series is Escherichia coli. As to the kind of experiment: Antimicrobial activity against Escherichia coli SG 458 at <= 100 ug/ml by agar diffusion assay. The class given is functional, organism-based. On the technique in general: In agar diffusion tests the substance spreads into inoculated agar from a disc or well.
For another series, the system named is Bacillus subtilis. The series is described as follows: Antimicrobial activity against Bacillus subtilis ATCC 6633 at <= 100 ug/ml by agar diffusion assay. The class given is functional, organism-based.
The test system of another series is Staphylococcus aureus. As to the kind of experiment: Antimicrobial activity against Staphylococcus aureus SG 511 at <= 100 ug/ml by agar diffusion assay. Type of series: functional, organism-based.
The next series has as its system Pseudomonas aeruginosa. The series is described as follows: Antimicrobial activity against Pseudomonas aeruginosa K 799/61 at <= 100 ug/ml by agar diffusion assay. The class given is functional, organism-based.
For a further series, the system named is Mycolicibacterium vaccae. As to the kind of experiment: Antimicrobial activity against Mycobacterium vaccae IMET 10670 at <= 100 ug/ml by agar diffusion assay. The class given is functional, organism-based.
Series [1] deals with Sporobolomyces salmonicolor. As to the kind of experiment: Antimicrobial activity against Sporobolomyces salmonicolor SBUG 549 at <= 100 ug/ml by agar diffusion assay. Type of series: functional, organism-based.
Another series concerns Candida albicans. The series is described as follows: Antifungal activity against Candida albicans BMSY 212 at <= 100 ug/ml by agar diffusion assay. The class given is functional, organism-based.
Another series deals with Penicillium chrysogenum. The series is described as follows: Antifungal activity against Penicillium notatum JP 36 at <= 100 ug/ml by agar diffusion assay. The class given is functional, organism-based.
The test system of another series is K562. As to the kind of experiment: Cytotoxicity against human K562 cells at <= 50 ug/ml. Type of series: functional, cell-based.
In another series the test system is HUVEC. As to the kind of experiment: Antiproliferative activity against human HUVEC cells at <= 50 ug/ml. The class given is cell-based.
The next series has as its system HeLa. The series is described as follows: Cytotoxicity against human HeLa cells at <= 50 ug/ml. The class given is functional, cell-based.

Active and inactive are the calls of the source. No cut-off for these calls is given here.

With `NC(=O)C1=C(N)[C@@H](O)[C@H](O)[C@@H](Nc2cc(-c3nc4c(O)cccc4c(=O)[nH]3)ccc2O)C1=O` [FARINAMYCIN], the result (in the series with Escherichia coli; in the series with Bacillus subtilis; in the series with Staphylococcus aureus; in the series on Pseudomonas aeruginosa; in the series with Mycolicibacterium vaccae; in series [1]) was inactive. Moreover, the outcome in the series with Candida albicans, with Penicillium chrysogenum, in the series on K562 and in the series with HeLa was inactive. Also, in the series with HUVEC, the Activity result was “Non-toxic”.

For the origin of these results see ChEMBL document CHEMBL1926641, “Farinamycin, a quinazoline from Streptomyces griseus” (J Nat Prod, 2011).
